Test results reported in patent US20210047262A1, “2-(3,4-DIHYDROXYPHENYL)ETHYL 3-HYDROXYBUTANOATE, COMPOSITION, AND METHOD FOR IMPROVING FUNCTION OF AORTIC ENDOTHELIAL CELL” (XI'AN JIAOTONG UNIVERSITY, priority 2019, published 2021).

How the values were obtained:
[1] = tested on: Human aortic endothelial cells (HAECs); experiment: MTT assay, cell viability of HAECs; assay type: cell-based; details: FIG. 1
Description: (§1) Human aortic endothelial cells (HAECs) were purchased from Shanghai Shanghai Bioleaf Biotech Co., Ltd. Palmitic acid (PA) was purchased from SIGMA Company. A palmitic acid solution having a concentration of 500 μM was prepared by dissolving palmitic acid in water. A cell culture incubator was adopted to culture the cells in a temperature-constant, humidified, sterile condition. The cells were cultured in wells of culture plates at an atmosphere of 95% air and 5% CO2 at 37° C. in the incubator. The experiments were performed on different experimental groups of cells.
The HAECs that were previously cultured in a 12-well cell culture plates were divided into 6 different experimental groups and respectively applied with HT-HB in different concentrations, 0 μM, 1 μM, 10 μM, 50 μM, 100 μM, and 200 μM, all followed with an 24-hour incubation. Then, each of the 6 groups of cells was further divided into two sub groups, one was applied with 500 µM palmitic acid, the other was not, all followed with another 24-hour incubation.
An MTT assay was performed to all groups of cells. […] The absorbance was measured at a wavelength of 490 nm in a spectrophotometer. The absorbance of this colored solution can be quantified by measuring at a certain wavelength (usually between 500 and 600 nm) by a spectrophotometer.

[2] = tested on: interleukin-6 (IL-6); experiment: IL-6 mRNA level detection (RT-PCR) in HAECs; assay type: cell-based, human; details: FIG. 2
Description: as §1
The HAECs that were previously cultured in a 12-well cell culture plate were divided into 4 different experimental groups and respectively applied with HT-HB in different concentrations, 0 μM, 0 μM, 50 μM, 100 μM, all followed with an 24-hour incubation. Then, the last 3 groups of cells were respectively applied with 500 μM palmitic acid, the first was not, all followed with another 24-hour incubation. The detecting of mRNA levels corresponding to interleukin-6 (IL-6) was respectively carried out on each group of cells by using reverse transcription RNA and real-time quantitative polymerase chain reaction (PCR), and the specific method is as follows:
The medium for cell culture in the wells was removed. […] The concentration of the solution was measured by an ultraviolet spectrophotometer. […]

[3] = tested on: mitochondrial complex I; experiment: Protein detection by Western blot in HAECs, mitochondrial complex I; assay type: cell-based, human; details: FIG. 3A, 3B
Description: as §1
The HAECs that were previously cultured in a 6-well cell culture plate were divided into 3 different experimental groups, the control (Ctrl) group, the PA group, and the HT-HB+PA group. The cells of the HT-HB+PA group were applied with HT-HB in a concentration of 100 µM followed with an 24-hour incubation. […]
The medium for cell culture in the wells was removed. […] The supernatants were collected, and the proteins therein were quantified by bicinchoninic acid (BCA) assay, and normalized. […]
10 μg of the extracted proteins were subjected to gel electrophoresis with 10% acrylamide gel, and electrophoretic transferred onto a PVDF membrane, which were blocked, and incubated with a primary antibody at 4° C. overnight, free primary antibody was washed away. […] Target proteins were detected by chemiluminescence.

[4] = tested on: mitochondrial complex II; experiment: Protein detection by Western blot in HAECs, mitochondrial complex II; assay type: cell-based, human; details: 500 μM palmitic acid 24 h, vs control, FIG. 3A, 3B
Description: Human aortic endothelial cells (HAECs) were purchased from Shanghai Shanghai Bioleaf Biotech Co., Ltd. Palmitic acid (PA) was purchased from SIGMA Company. A palmitic acid solution having a concentration of 500 μM was prepared by dissolving palmitic acid in water. A cell culture incubator was adopted to culture the cells in a temperature-constant, humidified, sterile condition. The cells were cultured in wells of culture plates at an atmosphere of 95% air and 5% CO2 at 37° C. in the incubator. The experiments were performed on different experimental groups of cells. The HAECs that were previously cultured in a 6-well cell culture plate were divided into 3 different experimental groups, the control (Ctrl) group, the PA group, and the HT-HB+PA group. The cells of the HT-HB+PA group were applied with HT-HB in a concentration of 100 µM followed with an 24-hour incubation. Then, the cells of both the PA group and the HT-HB+PA group were applied with 500 μM palmitic acid, all followed with another 24-hour incubation. The protein detection was respectively carried out on each group of cells as follows. The medium for cell culture in the wells was removed. […] The supernatants were collected, and the proteins therein were quantified by bicinchoninic acid (BCA) assay, and normalized. […] Target proteins were detected by chemiluminescence.

## CC(O)CC(=O)OCCc1ccc(O)c(O)c1 (stereo not shown) [HT-HB, 2-(3,4-dihydroxyphenyl)ethyl 3-hydroxybutanoate]
[1]; HAECs not treated with palmitic acid, HT-HB 1 μM to 100 μM, vs cells without HT-HB (control)
  relative cell viability: higher viabilities
[1]; HAECs pretreated with HT-HB 1 μM to 100 μM for 24 h, then 500 µM palmitic acid 24 h, vs palmitic acid treated cells without HT-HB
  relative cell viability: higher viabilities
[2]; HAECs pretreated with HT-HB 100 M for 24 h, then 500 μM palmitic acid 24 h
  mRNA level corresponding to IL-6: significantly decreased
[3]; HT-HB 100 M 24 h, then 500 μM palmitic acid 24 h, vs PA group
  relative protein expression level of mitochondrial complex I: significantly increasing the expression

## CCCCCCCCCCCCCCCC(=O)O [palmitic acid, reference compound]
[2]; HAECs, 500 μM palmitic acid 24 h, vs control group
  increase of mRNA level corresponding to IL-6: about 10 times
[3]; 500 μM palmitic acid 24 h, vs control
  relative protein expression level of mitochondrial complex I: reducing the expression
[4]
  relative protein expression level of mitochondrial complex II: reducing the expression
